Values of other authors as cited in patent US20110295365A1, “Anti-viral compositions and methods for administration” (Searete LLC, a limited liability corporation of the State …, priority 2010, published 2011).

How the values were obtained:
[1] = in vivo

Compound | inhibition of viral entry (varicella zoster virus) | passage across the placenta from mother to child [1]
O=C[C@@H](O)[C@@H](O)[C@H](O)[C@H](O)COP(=O)(O)O [mannose 6-phosphate] | inhibition of viral entry | 
heparin | inhibition of viral entry | 
enfuvirtide |  | do not efficiently pass from mother to child
